The target in one experiment is T1, complement factor D (Homo sapiens, UniProt P00746).
T1 construct: purchased Complement tech
Briefly: Complement factor D inhibitory activity (C3b method) in vitro screening; product Bb detected by ELISA. Conditions: factor D + factor B + factor C3b, 37° C., Bb by MicroVue Bb Plus ELISA. It counts as biochemical. The text has this:
1. Complement Factor D Inhibitory Activity (C3b Method) In Vitro Screening Experiment
V-bottom plate (AXYGEN), DMSO (Sigma), MicroVue Bb Plus ELISA kit (Quidel), complement factor C3b (abbreviated as factor C3b, Complement tech), complement factor B (abbreviated as factor B, Complement tech), complement factor D (abbreviated as factor D, Complement tech), EDTA (MACKLIN), GVB^o (Complement tech), EGTA (Aladdin), MgCl2 (Aladdin), NaOH (Sinopharm), microplate reader (Molecular Devices, SpectraMax i3x), microplate thermostatic shaker (Thermo, MB100-2A), pipette (Gilson)
0.1 M Mg-EGTA: 3.8 g of EGTA, 0.9521 g of MgCl2, and 0.7 g of NaOH were weighed, and the pH was adjusted to 7.5 with NaOH. Distilled water was added to make up to 100 mL, and the mixture was filtered with a […] sterile needle filter, stored in portions at 4° C.
Buffer: 0.1 M Mg-EGTA solution was diluted 10-fold to 10 mM with GVB^o buffer; • factor B working solution: 1 mg/mL factor B solution (10.75 μM) was diluted 6.7-fold to 1.6 μM with buffer; • factor C3b working solution: 1 mg/mL factor C3b solution (5.68 μM) was diluted 5-fold to […] with buffer; • factor D working solution: 0.1 mg/mL factor D solution (4.17 μM) was diluted 1303-fold to 3.2 nM with buffer.
Note: a. The above dilution multiples are for reference only and are adjusted according to the true concentration labeled on the reagent; • b. factor B: 93 KDa, factor D: 24 KDa, factor C3b: 176 KDa.
Stop solution: An appropriate amount of EDTA powder was weighed, dissolved in a certain amount of GVB^o buffer, and the pH was adjusted to 7.5 with NaOH. The mixture was stirred until clear and prepared into a 10 mM solution.
Compound stock solution: 40 mM compound solution was diluted with DMSO into 1 mM stock solution, and the 1 mM stock solution was diluted 3-fold with DMSO at 8 points to prepare compound stock solutions of various concentrations.
Compound working solution: diluted 250-fold with buffer to obtain compound solutions of various concentrations.
In the V-bottom plate, the experimental group was added with 10 μL of factor D solution and 10 μL of compound solution; the positive control group was added with 10 μL of factor D solution and buffer containing 0.4% DMSO; the blank control group was added with […] containing 0.2% DMSO; incubated at 37° C. for 15 min; the factor B working solution and the factor C3b working solution were mixed homogeneously at a ratio of 1:1; 20 µL of the mixture was added to each well and incubated at 37° C. for 30 min; the reaction was stopped by adding 40 μL of stop solution; the production of product Bb was detected by MicroVue Bb Plus ELISA kit.
1.4.1 The required wells of the ELISA plate were taken out and allowed to return to room temperature, and the remaining ones were repackaged and stored at 4° C.;
1.4.2 the wells were washed twice with 300 μL of 1× wash buffer, and incubated for 1 min at 25° C. for the first wash;
1.4.3 samples were diluted 8-fold with complement specimen diluent, and 100 μL of sample was added to each well and incubated at 25° C. for 30 min;
1.4.4 the liquid in the wells was discarded, and the wells were washed 5 times with 300 μL of 1× wash buffer, and incubated at room temperature for 1 min for the first wash;
1.4.5 50 μL of Bb Plus Conjugate was added to each well and incubated at 25° C. for 30 min;
1.4.6 the liquid in the wells was discarded, and the wells were washed 5 times with 300 μL of 1× wash buffer, and incubated at room temperature for 1 min for the first wash;
1.4.7 100 μL of […] (Substrate Solution) was added to each well and incubated at 25° C. for 15 min;
1.4.8 100 μL of stop solution was added to each well, and the absorbance was detected at 450 nm within 30 min.
1.5.1 Inhibition rate of each drug concentration:
The PC group represents 0% inhibition rate, and the NC group represents 100% inhibition rate. […]

Experiment [1] relates to hemolysis of rabbit erythrocytes. Briefly: Rabbit erythrocyte hemolysis assay to evaluate inhibitory activity on the bypass pathway. It counts as cell-based. Conditions: Oryctolagus cuniculus, 0.5 h, 48% NHP or 26.4% NHS, 37° C. 30 min, absorbance 415 nm. An excerpt:
2. Rabbit Erythrocyte Hemolysis Assay to Evaluate the Inhibitory Activity of Compounds on the Bypass Pathway
Normal Human Serum, NHS (collected from healthy people), Normal Human Plasma, NHP (Shanghai Yuduo), 96-well ELISA plate (Jet Biofil), Japanese big-eared white rabbit (Wuhan WQJX), Alsever's solution (Procell), centrifuge (Thermo, PICO17), thermostatic shaker (Shanghai Fuma), destaining shaker (Beijing Liuyi), cell counter (Invitrogen, Counter Countess II) (GVB^o, EGTA, MgCl2, NaOH, microplate reader, microplate thermostatic shaker, and pipette are equivalent to those in the experiment 1).
48% NHP: 100% NHP was diluted to 48% with buffer;
26.4% NPS: 100% NHS was diluted to 26.4% with buffer;
rabbit erythrocyte suspension: blood was taken from rabbit ear marginal vein, anticoagulated with Alsever's solution at a ratio of 1:1, stored in portions at 4° C., and could be stored for 4 weeks. Before use, the suspension was centrifuged at 500 g for 5 min to discard the Alsever's solution, washed three times with an equal volume of buffer and centrifuged at 500 g for 5 min, and finally the density was adjusted to 6×10^8 cells/mL with buffer.
In the 96-well ELISA plate, the experimental group was added with 50 μL of 48% NHP or 26.4% NHS and 50 μL of compound solution; the positive control group was added with 50 μL of 48% NHP or 26.4% NHS and 50 μL of buffer containing 0.2% DMSO; the blank control group was added with 50 μL of 48% inactivated NHP or 26.4% inactivated NHS and 0.2% DMSO buffer; the H2O group was added with 100 μL of double-distilled water; incubated at 37° C. for 15 min; 20 μL of rabbit erythrocyte suspension was added to each well and incubated on a shaker at 37° C. for 30 min; centrifuged at 2000 g (3380 rpm) for 5 min, and […] of supernatant was transferred to a new 96-well ELISA plate, and the absorbance was detected at 415 nm.
The PC group represents 100% hemolysis, and the NC group represents 0% hemolysis.
IC50: half-maximal inhibitory concentration. Data were collected to calculate the log value of hemolysis percentage versus compound concentration, and IC50 values were calculated using GraphPad Prism software.

T1 sequence (P00746 26-253): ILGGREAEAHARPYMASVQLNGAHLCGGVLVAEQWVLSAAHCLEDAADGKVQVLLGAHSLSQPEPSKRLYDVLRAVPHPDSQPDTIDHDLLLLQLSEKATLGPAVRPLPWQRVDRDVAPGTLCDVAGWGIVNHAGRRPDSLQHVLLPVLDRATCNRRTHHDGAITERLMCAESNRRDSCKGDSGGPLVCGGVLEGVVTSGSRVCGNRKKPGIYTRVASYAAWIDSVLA

With `NCc1cccc(-c2cc(COc3ccccc3CC(=O)O)cc(N3CCCC4(CC4)C3)c2)c1` [Compound 004, 2-(2-((3′-(aminomethyl)-5-(5-azaspiro[2.5]octan-5-yl)-[1,1′-biphenyl]-3-yl)methoxy)phenyl)acetic acid], the figures for the IC50 (on complement factor D; in experiment [1]) were 0.019 µM and 0.036 µM, respectively.
With `NCc1cccc(-c2cc(COc3ccccc3CC(=O)O)cc(N3CC4CCC(C4)C3)c2)c1` [Compound 006, 2-(2-((3′-(aminomethyl)-5-(3-azabicyclo[3.2.1]octan-3-yl)-′[1,1′-biphenyl]-3-yl)methoxy)phenyl)acetic acid], the IC50 – broadly, the concentration needed to halve the response being measured – was 0.004 µM at complement factor D and 0.054 µM in experiment [1].
`NCc1cc(F)cc(-c2cc(COc3ccccc3CC(=O)O)cc(N3CCC4(CC3)CC4)c2)c1` [Compound 008, 2-(2-((3′-(aminomethyl)-5′-fluoro-5-(6-azaspiro[2.5]octan-6-yl)-[1,1′-biphenyl]-3-yl)methoxy)phenyl)acetic acid]: the 50% inhibitory concentration (IC50) turned out to be 0.018 µM at complement factor D and 0.196 µM in experiment [1].
For `NCc1cccc(-c2cc(COc3ccccc3CC(=O)O)cc(N3CCC4(CC3)COC4)c2)c1` [Compound 011, 2-(2-((3′-(aminomethyl)-5-(2-oxa-7-azaspiro[3.5]nonan-7-yl)-[1,1′-biphenyl]-3-yl)methoxy)phenyl)acetic acid], in that order: 0.018 µM and 0.013 µM.
In the case of `NCc1cccc(-c2cc(COc3ccccc3CC(=O)O)cc(N3CCC4(CCO4)CC3)c2)c1` [Compound 012, 2-(2-((3′-(aminomethyl)-5-(1-oxa-7-azaspiro[3.5]nonan-7-yl)-[1,1′-biphenyl]-3-yl)methoxy)phenyl)acetic acid], the half-maximal inhibitory concentration (IC50) amounted to 0.006 µM on complement factor D and 0.004 µM in experiment [1].
On to `NCc1cccc(-c2cc(COc3ccccc3CC(=O)O)cc(N3CCC4(CC3)CC(O)C4)c2)c1` [Compound 013, 2-(2-((3′-(aminomethyl)-5-(2-hydroxy-7-azaspiro[3.5]nonan-7-yl)-[1,1′-biphenyl]-3-yl)methoxy)phenyl)acetic acid], for which the IC50 on complement factor D turned out to be 0.011 µM; in experiment [1] it was 0.028 µM.
Taken in the same sequence, the figures for `NCc1cccc(-c2cc(COc3ccccc3CC(=O)O)cc(N3CCC4(CCOC4)CC3)c2)c1` [Compound 014, 2-(2-((3′-(aminomethyl)-5-(2-oxa-8-azaspiro[4.5]decan-8-yl)-[1,1′-biphenyl]-3-yl)methoxy)phenyl)acetic acid] were 0.014 µM and 0.01 µM.
For `NCc1cccc(-c2cc(COc3ccccc3CC(=O)O)cc(N3CCOC4(CC4)C3)c2)c1` [Compound 016, 2-(2-((3′-(aminomethyl)-5-(4-oxa-7-azaspiro[2.5]octan-7-yl)-[1,1′-biphenyl]-3-yl)methoxy)phenyl)acetic acid], in that order: 0.026 µM and 0.019 µM.
For `NCc1cccc(-c2cc(COc3ccccc3CC(=O)O)cc(N3CC4(CCCC4)C3)c2)c1` [Compound 017, 2-(2-((3′-(aminomethyl)-5-(2-azaspiro[3.4]octan-2-yl)-[1,1′-biphenyl]-3-yl)methoxy)phenyl)acetic acid], in that order: 0.006 µM and 0.065 µM.
On to `NCc1cccc(-c2cc(COc3cc(F)ccc3CC(=O)O)cc(N3CCC4(CC3)CC4)c2)c1F` [Compound 021, 2-(2-((3′-(aminomethyl)-2′-fluoro-5-(6-azaspiro[2.5]octan-6-yl)-[1,1′-biphenyl]-3-yl)methoxy)-4-fluorophenyl)acetic acid], for which the IC50 at complement factor D is 0.011 µM; in experiment [1], 0.065 µM.
Turning to `NCc1cccc(-c2cc(COc3ccccc3CC(=O)O)cc(N3CCC4(CC3)COC4)c2)c1F` [Compound 024, 2-(2-((3′-(aminomethyl)-2′-fluoro-5-(2-oxa-7-azaspiro[3.5]nonan-7-yl)-[1,1′-biphenyl]-3-yl)methoxy)phenyl)acetic acid], the IC50 at complement factor D is 0.004 µM; in experiment [1], 0.027 µM.
For `NCc1cccc(-c2cc(COc3ccc(F)cc3CC(=O)O)cc(N3CCC4(CC3)COC4)c2)c1F` [Compound 025, 2-(2-((3′-(aminomethyl)-2′-fluoro-5-(2-oxa-7-azaspiro[3.5]nonan-7-yl)-[1,1′-biphenyl]-3-yl)methoxy)-5-fluorophenyl)acetic acid], in that order: 0.007 µM and 0.012 µM.
For `NCc1cccc(-c2cc(COc3ccccc3CC(=O)O)cc(N3CCC4(CCOCC4)CC3)c2)c1` [Compound 029, 2-(2-((3′-(aminomethyl)-5-(3-oxa-9-azaspiro[5.5]undecan-9-yl)-[1,1′-biphenyl]-3-yl)methoxy)phenyl)acetic acid], in that order: 0.006 µM and 0.01 µM.
In the case of `NCc1cccc(-c2cc(COc3ccccc3CC(=O)O)cc(N3CCC4(CCCOC4)CC3)c2)c1` [Compound 030, 2-(2-((3′-(aminomethyl)-5-(2-oxa-9-azaspiro[5.5]undecan-9-yl)-[1,1′-biphenyl]-3-yl)methoxy)phenyl)acetic acid], the IC50 came out at 0.004 µM at complement factor D and 0.022 µM in experiment [1].
For `NCc1cccc(-c2cc(COc3ccccc3CC(=O)O)cc(N3CC4(CCOC4)C3)c2)c1` [Compound 031, 2-(2-((3′-(aminomethyl)-5-(6-oxa-2-azaspiro[3.4]octan-2-yl)-[1,1′-biphenyl]-3-yl)methoxy)phenyl)acetic acid], in that order: 0.003 µM and 0.006 µM.
For `CN1CC2(CCN(c3cc(COc4ccccc4CC(=O)O)cc(-c4cccc(CN)c4)c3)CC2)C1` [Compound 032, 2-(2-((3′-(aminomethyl)-5-(2-methyl-2,7-diazaspiro[3.5]nonan-7-yl)-[1,1′-biphenyl]-3-yl)methoxy)phenyl)acetic acid], the IC50 was 0.01 µM at complement factor D and 0.008 µM in experiment [1].

The values are drawn from patent US20240391877A1, “COMPOUND AS INHIBITOR OF COMPLEMENT FACTOR D, AND PHARMACEUTICAL COMPOSITION AND USE THEREOF” (WUHAN CREATERNA SCIENCE AND TECHNOLOGY CO.,LTD., priority 2021, published 2024).
